From patent US10023591B2, “Heterocyclic derivatives and use thereof” (C&C RESEARCH LABORATORIES, priority 2014, dated 2018)

Columns and labels:
STAT3 = STAT3 reporter gene assay (luciferase), LNCaP stable cell line pSTAT3-TA-luc, IL-6 stimulation; assay type: cell-based, human; details: Homo sapiens
In short: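 LNCaP cells stably carrying pSTAT3-TA-luc were plated 24 h in 3% DCC-FBS medium, then given compound followed by IL-6 (10 ng/mL final) for 24 h at 37 °C. Luciferase was read from lysates, with CellTiter-Glo viability on a duplicate plate. Stimulated 0.1% DMSO wells served as uninhibited control.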

STAT1 = STAT1 reporter gene assay (luciferase), U2OS stable cell line pGL4-STAT1-TA-luc, IFN-γ stimulation; assay type: cell-based, human; details: Homo sapiens, IFN-γ 50 ng/mL, 8 hours, read-out: IC50 (μM) pSTAT1
In short: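 U2OS cells stably carrying a STAT1-driven luciferase reporter were treated with serially diluted compounds plus IFN-γ (50 ng/mL final) for 8 h at 37 °C in 10% FBS medium. Luciferase read after lysis; parallel plate assessed for cytotoxicity by CellTiter-Glo.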

[1] = test system: LNCaP prostate cancer cell line; test: Cell growth inhibition assay, LNCaP (CellTiter-Glo); assay type: cell-based; details: Homo sapiens; LNCaP, 10,000 cells/well, medium with 10 ng/mL IL-6, 96 hours
Protocol: (§1) The inhibitory effects of the compounds of the present invention against the growth of cancer cells were evaluated as shown below. The cancer cell lines including prostate cancer cell lines (LNCaP, DU-145), stomach cancer cell line (NCI-N87), and breast cancer cell lines (MDA-MB-468) were cultured under the protocol provided by each supplier. A medium supplemented with 10 ng/mL of IL-6 was used for LNCaP, a prostate cancer cell line, when treated with a drug. Each type of cells to be used in experiments was sub-cultured in a 96-well plate by counting the exact number of cells using Tali™ Image-based Cytometer (Life Technologies). In a 96-well plate, DU-145 was employed with 3,000 cells/well; NCI-N87 was employed with 5,000 cells/well; and LNCaP and MDA-MB-468 were employed with 10,000 cells/well. The cells were treated with the compounds listed in Examples which were diluted in various concentrations. Upon completion of the compounds treatment, LNCaP, DU-145, NCI-N87 cells were cultured at 37° C. under 5% CO2 for 96 hours, and MDA-MB-468 cells were cultured at 37° C. in air for 96 hours. Subsequently, the cells were observed under microscope and drug precipitation and particular findings were investigated and recorded. And then, the 96-well plate was placed at room temperature for 30 minutes, added with 20 pt/well of CellTiter-Glo solution (Cat No. G7573, Promega) and shaken for 10 minutes, followed by being subjected to the measurement using PHERAstar™ microplate reader (BMG LABTECH) according to the supplier's general luminometer protocol. Wells where only culture liquid added without cell plating were used as a negative control, whereas wells where culture liquid containing 0.1% DMSO instead of the compounds listed in Examples were used as a positive control.

[2] = test system: DU-145 prostate cancer cell line; test: Cell growth inhibition assay, DU-145 (CellTiter-Glo); assay type: cell-based; details: Homo sapiens; DU-145, 3,000 cells/well, 96 hours
Protocol: as §1

[3] = test system: NCI-N87 stomach cancer cell line; test: Cell growth inhibition assay, NCI-N87 (CellTiter-Glo); assay type: cell-based; details: Homo sapiens; NCI-N87, 5,000 cells/well, 96 hours
Protocol: as §1

| IC50 (STAT3) | IC50 (STAT1) | IC50 [1] | IC50 [2] | IC50 [3] | SMILES |
| --- | --- | --- | --- | --- | --- |
| 0.07 µM | > 50 µM | 0.14 µM | 0.026 µM | – | CN(c1ccc(Cl)cc1)c1cc(NC(=O)c2cc3cc(C(C)(C)S(C)(=O)=O)ccc3s2)cc(Cl)n1 [Example 100, N-(2-chloro-6-((4-chlorophenyl)(methyl)amino)pyridin-4-yl)-5-(2-(methylsulfonyl)propan-2-yl)benzo[b]thiophene-2-carboxamide] |
| 0.025 µM | > 50 µM | 0.022 µM | 0.015 µM | – | CC(C)(c1ccc2sc(C(=O)Nc3cc(Cl)cc(Oc4ccc(F)c(F)c4)c3)cc2c1)S(C)(=O)=O [Example 52, N-(3-chloro-5-(3,4-difluorophenoxy)phenyl)-5-(2-(methylsulfonyl)propan-2-yl)benzo[b]thiophene-2-carboxamide] |
| > 10 µM | > 50 µM | > 1.1 µM | > 1.1 µM | – | CC(C)(c1ccc(Cl)cc1)c1cc(NC(=O)c2cc3cc(C(C)(C)S(C)(=O)=O)ccc3s2)n(C(C)(C)C)n1 [Example 88, N-(1-(tert-butyl)-3-(2-(4-chlorophenyl)propan-2-yl)-1H-pyrazol-5-yl)-5-(2-(methylsulfonyl)propan-2-yl)benzo[b]thiophene-2-carboxamide] |
| 0.11 µM | > 50 µM | 0.14 µM | 0.046 µM | – | CN(c1ccc(Cl)cc1)c1cc(Cl)cc(NC(=O)c2cc3cc(C(C)(C)S(C)(=O)=O)ccc3s2)c1 [Example 99, N-(3-chloro-5-((4-chlorophenyl)(methyl)amino)phenyl)-5-(2-(methylsulfonyl)propan-2-yl)benzo[b]thiophene-2-carboxamide] |
| 0.05 µM | > 50 µM | – | – | 0.2 µM | CC(C)(c1ccc2sc(C(=O)Nc3cc(Cl)nc(OC4CC5C=CC4C5)c3)cc2c1)S(C)(=O)=O (centres unmarked) [Example 78, N-(2-(bicyclo[2.2.1]hept-5-en-2-yloxy)-6-chloropyridin-4-yl)-5-(2-(methylsulfonyl)propan-2-yl)benzo[b]thiophene-2-carboxamide] |
| 1.3 µM | > 50 µM | – | – | 2.4 µM | Cc1nn(C)c(C)c1Oc1cc(NC(=O)c2cc3cc(C(C)(C)S(C)(=O)=O)ccc3s2)cc(Cl)n1 [Example 111, N-(2-chloro-6-((1,3,5-trimethyl-1H-pyrazol-4-yl)oxy)pyridin-4-yl)-5-(2-(methylsulfonyl)propan-2-yl)benzo[b]thiophene-2-carboxamide] |
| 0.53 µM | 44.8 µM | – | – | 1.2 µM | Cn1nccc1Oc1cc(NC(=O)c2cc3cc(C(C)(C)S(C)(=O)=O)ccc3s2)cc(Cl)n1 [Example 110, N-(2-chloro-6-((1-methyl-1H-pyrazol-5-yl)oxy)pyridin-4-yl)-5-(2-(methylsulfonyl)propan-2-yl)benzo[b]thiophene-2-carboxamide] |
| 0.12 µM | > 50 µM | – | – | 0.61 µM | O=C(Nc1cc(Cl)nc(Oc2ccc(Cl)cc2)c1)c1cc2cc(C3CCCCS3(=O)=O)ccc2s1 (centres unmarked) [Example 74, N-(2-chloro-6-(4-chlorophenoxy)pyridin-4-yl)-5-(1,1-dioxidotetrahydro-2H-thiopyran-2-yl)benzo[b]thiophene-2-carboxamide] |
| 1.4 µM | 8.7 µM | – | – | 1.7 µM | CC(C)(c1ccc2sc(C(=O)Nc3cc(Cl)nc(N4CCN5CCCC5C4)c3)cc2c1)S(C)(=O)=O (centres unmarked) [Example 104, N-(2-chloro-6-(hexahydropyrrolo[1,2-a]pyrazin-2(1H)-yl)pyridin-4-yl)-5-(2-(methylsulfonyl)propan-2-yl)benzo[b]thiophene-2-carboxamide] |
| 0.32 µM | 18.9 µM | – | – | 1 µM | Cn1cc(Oc2cc(NC(=O)c3cc4cc(C(C)(C)S(C)(=O)=O)ccc4s3)cc(Cl)n2)cn1 [Example 112, N-(2-chloro-6-((1-methyl-1H-pyrazol-4-yl)oxy)pyridin-4-yl)-5-(2-(methylsulfonyl)propan-2-yl)benzo[b]thiophene-2-carboxamide] |

Further lines, the compound ahead of its results:

| SMILES | IC50 (STAT3) | IC50 (STAT1) | IC50 [1] | IC50 [2] | IC50 [3] |
| --- | --- | --- | --- | --- | --- |
| CC(C)(c1ccc(F)cc1)c1cc(Cl)cc(NC(=O)c2cc3cc(C(C)(C)S(C)(=O)=O)c(F)cc3s2)c1 [Example 19, N-(3-chloro-5-(2-(4-fluorophenyl)propan-2-yl)phenyl)-6-fluoro-5-(2-(methylsulfonyl)propan-2-yl)benzo[b]thiophene-2-carboxamide] | 0.029 µM | > 50 µM | 0.043 µM | 0.022 µM | – |
| CC(C)(c1ccc(Cl)cc1)c1cc(Cl)cc(NC(=O)c2cc3cc(C(F)S(C)(=O)=O)ccc3s2)c1 (centres unmarked) [Example 25, N-(3-chloro-5-(2-(4-chlorophenyl)propan-2-yl)phenyl)-5-(fluoro(methylsulfonyl)methyl)benzo[b]thiophene-2-carboxamide] | 0.034 µM | > 50 µM | 0.072 µM | 0.066 µM | – |
| COc1ccc(C(C)(C)c2cc(Cl)cc(NC(=O)c3cc4cc(C(C)(C)S(C)(=O)=O)ccc4s3)c2)cc1 [Example 17, N-(3-chloro-5-(2-(4-methoxyphenyl)propan-2-yl)phenyl)-5-(2-(methylsulfonyl)propan-2-yl)benzo[b]thiophene-2-carboxamide] | 0.045 µM | > 50 µM | 0.08 µM | 0.039 µM | – |
| CC(C)(c1ccc(Cl)cc1)c1cc(Cl)cc(NC(=O)c2cc3cc(C(C)(C)S(C)(=O)=O)c(Cl)cc3s2)c1 [Example 23, 6-chloro-N-(3-chloro-5-(2-(4-chlorophenyl)propan-2-yl)phenyl)-5-(2-(methylsulfonyl)propan-2-yl)benzo[b]thiophene-2-carboxamide] | 0.084 µM | > 50 µM | 0.8 µM | 0.04 µM | – |
| CC#CCOc1cc(OC(F)(F)F)cc(C(C)(C)c2cc(Cl)cc(NC(=O)c3cc4cc(C(C)(C)S(C)(=O)=O)ccc4s3)c2)c1 [Example 10, N-(3-(2-(3-(but-2-yn-1-yloxy)-5-(trifluoromethoxy)phenyl)propan-2-yl)-5-chlorophenyl)-5-(2-(methylsulfonyl)propan-2-yl)benzo[b]thiophene-2-carboxamide] | 0.018 µM | > 50 µM | – | – | 0.01 µM |
| CC(C)Oc1cc(OC(F)(F)F)cc(C(C)(C)c2cc(Br)cc(NC(=O)c3cc4cc(C(C)(C)S(C)(=O)=O)ccc4s3)c2)c1 [Example 9, N-(3-bromo-5-(2-(3-isopropoxy-5-(trifluoromethoxy)phenyl)propan-2-yl)phenyl)-5-(2-(methylsulfonyl)propan-2-yl)benzo[b]thiophene-2-carboxamide] | 0.00065 µM | > 50 µM | – | – | 0.02 µM |
| CC(C)COc1cc(OC(F)(F)F)cc(C(C)(C)c2cc(Cl)cc(NC(=O)c3cc4cc(C(C)(C)S(C)(=O)=O)ccc4s3)c2)c1 [Example 11, N-(3-chloro-5-(2-(3-isobutoxy-5-(trifluoromethoxy)phenyl)propan-2-yl)phenyl)-5-(2-(methylsulfonyl)propan-2-yl)benzo[b]thiophene-2-carboxamide] | 0.0021 µM | > 50 µM | – | – | 0.011 µM |
| CC(C)(c1cc(Cl)cc(NC(=O)c2cc3cc(C(C)(C)S(C)(=O)=O)ccc3s2)c1)c1cc(OCC(F)F)cc(OC(F)(F)F)c1 [Example 13, N-(3-chloro-5-(2-(3-(2,2-difluoroethoxy)-5-(trifluoromethoxy)phenyl)propan-2-yl)phenyl)-5-(2-(methylsulfonyl)propan-2-yl)benzo[b]thiophene-2-carboxamide] | 0.01 µM | > 50 µM | – | – | 0.028 µM |
| C=CCOc1cc(OC(F)(F)F)cc(C(C)(C)c2cc(Cl)cc(NC(=O)c3cc4cc(C(C)(C)S(C)(=O)=O)ccc4s3)c2)c1 [Example 14, N-(3-(2-(3-(allyloxy)-5-(trifluoromethoxy)phenyl)propan-2-yl)-5-chlorophenyl)-5-(2-(methylsulfonyl)propan-2-yl)benzo[b]thiophene-2-carboxamide] | 0.0083 µM | > 50 µM | – | – | 0.01 µM |
| Cc1csc(C(C)(C)c2cc(Cl)cc(NC(=O)c3cc4cc(C(C)(C)S(C)(=O)=O)ccc4s3)c2)c1 [Example 32, N-(3-chloro-5-(2-(4-methylthiophen-2-yl)propan-2-yl)phenyl)-5-(2-(methylsulfonyl)propan-2-yl)benzo[b]thiophene-2-carboxamide] | 0.01 µM | > 50 µM | – | – | 0.076 µM |
